According to US20090018136A1, “METHODS AND COMPOSITIONS FOR THE TREATMENT OF VASCULAR DISEASE” (priority 2005, published 2009):

Tests used:
Format in all cases: in vivo, human
hypertensive patients [1] = test: Study 2: dose-response of oral BH4 on blood pressure and heart rate, after 2-week vitamin C run-in
Protocol: Prior studies have used parenteral infusion of BH4 or a single oral dose; thus it was not known whether long-term oral BH4 over a period of days to weeks would result in a sustained improvement in endothelial dysfunction. […] Two studies were conducted to investigate the duration of action of oral BH4 and the response of hypertensive subjects to different doses of BH4. […] Patients were continued on their current anti-hypertensive therapy which remained unchanged. […] BH4 powder was obtained from Schircks Laboratories (Jona, Switzerland). BH4 when administered with vitamin C was compounded with vitamin C at a ratio of 1 mg of vitamin C/1 mg BH4 into appropriate sized capsules. Subjects were advised to keep the pills in a freezer or refrigerator. For both study 1 and study 2, the primary end point after statistical analysis was a reduction of systolic, mean and diastolic BP during BH4 therapy. Secondary end points included improvement of endothelial function as FMD. Linear mixed effects models for repeated measures data were used to analyze change in BP from baseline to end of treatment period and differences in change between 100 mg and 200 mg dose groups. A quadratic term for week was included in the model to account for non-linear trends over the treatment period. Dose, week and week squared were the main effect terms in the model; dose by week and dose by week squared were the interaction terms in the model. Significant interaction terms indicate a difference in the pattern of change between the two dose groups. FMD data was analyzed using the two-tailed student t-test. […] Of the 20 subjects who qualified for participation, 4 were excluded during the run-in phase because of inability to return for follow-up appointments. There were 6 male subjects, mean age 59.5±8.3 years. Eight subjects received 200 mg b.i.d (twice daily) of oral BH4 and 8 received 100 mg b.i.d. of oral BH4. […] Because BH4 was compounded with vitamin C in a 1:1 ratio, all subjects received vitamin C, at their assigned BH4 dose, twice a day during the first 2-week period. After this 2-week run-in period, subjects received BH4 only at their assigned dosage for the next 4 weeks. Weekly heart rate and BP measurements were made during the run-in period and treatment period. Mean blood pressure was calculated as: (SBP+2×DBP)/3. BH4 was then stopped and follow-up was performed at 1 and 4 weeks after discontinuation where BP and heart rate measurements were made. Routine chemistries and LFT's were drawn prior to initiation of medication, at the end of BH4 therapy and one month after discontinuation of BH4.

hypertensive patients [2] = test: Adverse events in Study 1 and Study 2 of oral BH4; conditions: either study
From the text: Subjects between the ages of 18 and 75 years were recruited if they had uncontrolled hypertension on traditional stable anti-hypertensive therapy (BP≧135/85), or newly diagnosed hypertension (BP≧140/90). Patients were continued on their current anti-hypertensive therapy which remained unchanged. The criteria for exclusion were: female subjects with childbearing potential, history of recently symptomatic coronary or peripheral vascular disease, known secondary causes for hypertension, severe uncontrolled hypertension (BP>180 mmHg systolic and/or 110 mmHg diastolic), severe co-morbid conditions which would limit life expectancy to less than 6 months, renal or hepatic dysfunction, alteration of any concomitant anti-hypertensive therapy within the last 6 weeks, and any bleeding disorders. BH4 powder was obtained from Schircks Laboratories (Jona, Switzerland). BH4 when administered with vitamin C was compounded with vitamin C at a ratio of 1 mg of vitamin C/1 mg BH4 into appropriate sized capsules. Subjects were advised to keep the pills in a freezer or refrigerator.
Of the 20 subjects who qualified for participation, 4 were excluded during the run-in phase because of inability to return for follow-up appointments. There were 6 male subjects, mean age 59.5±8.3 years. […] Mean blood pressure was calculated as: (SBP+2×DBP)/3. […]

brachial artery = test: Study 1: brachial artery flow-mediated and nitroglycerin-mediated vasodilation by ultrasound
Protocol: The technique was carried out as described in Prasad et al., Circulation, 2000. 101(20): p. 2349-54. Briefly, using an 11 MHz high resolution ultrasound transducer (Acuson Inc) in a temperature-controlled room, brachial diameter was measured above the antecubital fossa in the non-dominant arm. Flow-mediated vasodilation (FMD) was measured by inflating a BP cuff on the forearm to >200 mm Hg for 5 minutes, deflating rapidly, and measuring brachial diameter at 1 minute after onset of hyperemia. For all measurements three diameters were measured on three separate end-diastolic frames and averaged. To obtain the maximal brachial artery dilation that represents FMD the following equation was used: (average diameter with hyperemia−average baseline diameter)÷average baseline diameter X 100. To measure the endothelium-independent vasodilator response, subjects were given sublingual nitroglycerin 0.4 mg and the brachial diameter was measured as above after 5 minutes. To obtain endothelium-independent vasodilation the following equation was used: (average diameter post nitroglycerin-average baseline diameter)÷average baseline diameter X 100. For both study 1 and study 2, the primary end point after statistical analysis was a reduction of systolic, mean and diastolic BP during BH4 therapy. Secondary end points included improvement of endothelial function as FMD. Linear mixed effects models for repeated measures data were used to analyze change in BP from baseline to end of treatment period and differences in change between 100 mg and 200 mg dose groups. A quadratic term for week was included in the model to account for non-linear trends over the treatment period. Dose, week and week squared were the main effect terms in the model; dose by week and dose by week squared were the interaction terms in the model. Significant interaction terms indicate a difference in the pattern of change between the two dose groups. FMD data was analyzed using the two-tailed student t-test.

C[C@H](O)[C@H](O)[C@H]1CNc2nc(N)[nH]c(=O)c2N1 [BH4, tetrahydrobiopterin]
change in BP (hypertensive patients [1]; Study 2, 100 mg b.i.d. of BH4): No statistically significant change | decrease in systolic BP (hypertensive patients [1]; Study 2, 200 mg b.i.d. oral BH4, 4 weeks, p=0.03): significant decrease | decrease in mean BP (hypertensive patients [1]; Study 2, 200 mg b.i.d. oral BH4, 4 weeks, p=0.04 by linear trend analysis): significant decrease | BP after discontinuation of BH4 (hypertensive patients [1]; Study 2, 200 mg b.i.d., 4 weeks after discontinuation): returned to baseline levels | BP after termination of therapy (hypertensive patients [1]; Study 2, 200 mg b.i.d., a week after termination): remained lower | systolic BP mean lowering at nadir (hypertensive patients [1]; Study 2, 200 mg b.i.d., after 3 weeks, p=0.04): 16 mmHg | Mean BP after one week (hypertensive patients [1]; Study 2, 200 mg b.i.d., p=0.02): significantly lower | decrease in diastolic BP (hypertensive patients [1]; Study 2, 200 mg b.i.d., p=0.08): did not reach statistical significance | alteration in heart rate with BH4 (hypertensive patients [1]; Study 2, either group, 100 mg or 200 mg b.i.d.): no significant alteration | dose at which the BP-lowering effect was observed (hypertensive patients [1]; oral BH4, free of any changes in heart rate): ≥ 200 mg b.i.d. | time until reduction in BP was evident (hypertensive patients [1]; oral BH4 therapy): ≤ 1 week | adverse events (hypertensive patients [2]): no significant adverse events | Flow-mediated vasodilation of the brachial artery (brachial artery; Study 1, 6 weeks after termination of therapy, p=ns compared to baseline): 3.7±1.3% | Flow-mediated vasodilation of the brachial artery (brachial artery; Study 1, after 8 weeks of BH4, baseline mean 3.4±1%, p=0.05, n=6): 8.2±3.4% | Nitroglycerin-mediated vasodilation (brachial artery; Study 1, after BH4, 11.9±3% before, p=0.1, remained unchanged): 16.1±5%
